This is an account of results in publication PMC4710522, “A Novel Triazolopyridine-Based Spleen Tyrosine Kinase Inhibitor That Arrests Joint Inflammation” (PLoS ONE, 2016).

Read-outs that look alike come from different tables or passages of the source.

One data set has as its target T1, human KDR in Hek cells (Homo sapiens, UniProt P35968).
T1 construct: host or cells: HEK293
The data set can be described thus: KDR cellular selectivity assay (VEGF-induced KDR autophosphorylation). The data set is classed as cell-based.

The target in the next data set is T2, PKC-eta_h (Homo sapiens, UniProt P24723).
T2 construct: purchased Life Technologies (Invitrogen) SelectScreen, Z'-LYTE / Adapta
The data set can be described thus: SelectScreen kinase assay. Format: biochemical. The note with it: KM ATP, read-out: % control.

In data set [1] the test system is rat collagen-induced arthritis model. As to the kind of experiment: rat collagen-induced arthritis (CIA) model, paw swelling. The following applies: for inhibition of paw swelling: 8 days. Format: in vivo. Here is the method: (§1) Female Lewis rats (150 – 170g; Charles River Laboratories) were house standard shoebox cages, fed Harlan-Tekald diet and water ad libitum and maintained on a 12h light/dark cycle. For induction of arthritis rats were anesthetized with isofluorane and their entire dorsal area shaved. Rats were injected (intradermal) with 100 μl of equal volumes of collagen (Chrondrex, Redmond, WA) and IFA (Sigma Chemicals, St. Louis, MO) emulsion in 10 sites across the dorsal region. At disease onset 11 days following immunization animals were randomized into groups based on their ankle measurements and test article administration was initiated. Rats were dosed orally with vehicle (20% Captisol®), Indomethacin (Sigma Chemicals, St. Louis, MO, 2mg/kg) or CC-509 (15, 25mg/kg QD or 15mg/kg BID) in a dose volume of 5ml/kg. […] On the last day of the study animals were split into 2 cohorts and bleed twice via tail bleed under isofluorane anesthesia and a third terminal bleed following CO2 asphyxiation to obtain a time course of plasma compound exposure at 30minutes, 1, 2, 4, 8 and 24h after the last dose of CC-509.
For the TEL-Syk assay, the intensity values for the 700 and 800 channel were exported as text files in ActivityBase (IDBS, Guildford, UK) to derive the ratios that reflect kinase activity. For LAD2 experiments, enzyme activity values were exported as text files into ActivityBase to calculate “percent release” according to the formula: 100* supernatant OD405/ (supernatant OD405 + (pellet OD405*pellet dilution factor)). For the basophil and B-cells assays, flow cytometry data was exported from the FACS Array and processed using FloJo software package (TreeStar, Inc., Ashland, Oregon). For the JAK2 HEL and Ramos NFAT β-lactamase assays, the fluorescence values obtained at 460 nm and 530 nm were exported into ActivityBase to calculate response ratios. For the neutrophil, macrophage, KDR, and JAK1/3 assays, raw values were exported into ActivityBase to calculate percent inhibition. All IC50 calculations were generated using XLfit (IDBS, Guildford, UK) algorithm 205 within Excel. For PCA, the OD from the saline injected site was subtracted from the OD from the anti-DNP IgE injected site. Evans blue dye extravasation was expressed as mean ± SEM and % inhibition for the test article groups was normalized to the cromolyn positive control. For the CIA model paw measurements (left and right ankle diameter) were taken for each individual animal and averaged. The mean data from each group was plotted and either the AUC(day 11–18) or % inhibition on day 18 was calculated. Data is expressed as mean ± SEM of each group with n = 6–12. Statistical analysis was performed with Prism Graphpad using one-way ANOVA followed by Dunnett’s comparison using the vehicle group as the control or for measurements over time a 2 way ANOVA followed by a Dunnett’s multiple comparison test. Statistical significance was deemed as * = p<0.05, **p<0.01, ***p<0.001 and p<0.0001.

A short description of data set [2]: plasma compound exposure in rat CIA study. Format: in vivo. The note with it: for AUC(0-t): female, Lewis, rat, plasma, po, read-out: AUC0-24h in plasma after the last day of dosing. Here is the method:
as §1

In a further data set the target is Syk (Homo sapiens, UniProt P43405). The data set can be described thus: Syk kinase mode of inhibition studies (Caliper LC3000). The data set is classed as biochemical. Here is the method:
Syk kinase mode of inhibition studies, including parameters described in Fig 1, were conducted on the LC3000 platform by Caliper Life Sciences (Hopkinton, MA) according to standard protocols developed by the supplier. […] Non-kinase enzyme assays and GPCR, ion channel, and transporter binding assays were run by CEREP (France). Non-GLP manual patch clamp hERG assays were run by ChanTest (Cleveland, Ohio). Vivid® Assay kits (Life Technologies) were used to measure the cytochrome P450 inhibition of the compound against CYP3A, CYP2C9, CYP2C19, CYP2D6, and CYP1A2, as described.

T1 sequence (P35968 20-1356): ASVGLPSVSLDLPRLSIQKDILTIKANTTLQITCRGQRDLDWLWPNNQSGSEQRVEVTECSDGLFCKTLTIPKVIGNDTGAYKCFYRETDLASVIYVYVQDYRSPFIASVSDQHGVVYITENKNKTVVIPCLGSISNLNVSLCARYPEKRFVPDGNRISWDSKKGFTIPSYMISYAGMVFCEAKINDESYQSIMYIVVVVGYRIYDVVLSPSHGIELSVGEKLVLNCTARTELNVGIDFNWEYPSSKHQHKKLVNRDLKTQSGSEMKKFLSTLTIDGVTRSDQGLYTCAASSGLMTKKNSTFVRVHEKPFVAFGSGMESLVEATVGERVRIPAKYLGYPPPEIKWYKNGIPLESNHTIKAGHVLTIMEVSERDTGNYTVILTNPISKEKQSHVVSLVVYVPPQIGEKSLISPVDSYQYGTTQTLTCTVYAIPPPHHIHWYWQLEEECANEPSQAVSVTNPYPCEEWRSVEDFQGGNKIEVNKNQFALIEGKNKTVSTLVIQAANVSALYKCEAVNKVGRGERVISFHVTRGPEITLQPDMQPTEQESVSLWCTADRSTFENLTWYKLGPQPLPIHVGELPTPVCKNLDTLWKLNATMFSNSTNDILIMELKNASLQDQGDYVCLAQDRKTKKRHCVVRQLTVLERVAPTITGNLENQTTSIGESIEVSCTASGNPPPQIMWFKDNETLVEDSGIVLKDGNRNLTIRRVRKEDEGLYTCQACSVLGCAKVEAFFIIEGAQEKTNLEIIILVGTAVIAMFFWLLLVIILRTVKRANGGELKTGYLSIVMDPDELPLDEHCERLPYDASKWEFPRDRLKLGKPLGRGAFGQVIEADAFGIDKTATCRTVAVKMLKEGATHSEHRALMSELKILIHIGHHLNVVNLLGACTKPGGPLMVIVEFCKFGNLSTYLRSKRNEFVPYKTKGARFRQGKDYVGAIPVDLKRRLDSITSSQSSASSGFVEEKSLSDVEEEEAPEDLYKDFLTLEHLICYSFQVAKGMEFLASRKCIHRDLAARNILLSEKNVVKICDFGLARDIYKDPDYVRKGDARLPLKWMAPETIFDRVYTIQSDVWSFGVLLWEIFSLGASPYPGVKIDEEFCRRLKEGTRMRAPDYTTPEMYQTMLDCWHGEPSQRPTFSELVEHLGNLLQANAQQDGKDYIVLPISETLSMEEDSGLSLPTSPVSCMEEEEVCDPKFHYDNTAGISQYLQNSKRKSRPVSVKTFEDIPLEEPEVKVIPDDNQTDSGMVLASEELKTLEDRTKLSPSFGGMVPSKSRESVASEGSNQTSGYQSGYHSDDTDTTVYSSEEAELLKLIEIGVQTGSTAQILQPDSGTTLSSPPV
T2 sequence (P24723 whole entry): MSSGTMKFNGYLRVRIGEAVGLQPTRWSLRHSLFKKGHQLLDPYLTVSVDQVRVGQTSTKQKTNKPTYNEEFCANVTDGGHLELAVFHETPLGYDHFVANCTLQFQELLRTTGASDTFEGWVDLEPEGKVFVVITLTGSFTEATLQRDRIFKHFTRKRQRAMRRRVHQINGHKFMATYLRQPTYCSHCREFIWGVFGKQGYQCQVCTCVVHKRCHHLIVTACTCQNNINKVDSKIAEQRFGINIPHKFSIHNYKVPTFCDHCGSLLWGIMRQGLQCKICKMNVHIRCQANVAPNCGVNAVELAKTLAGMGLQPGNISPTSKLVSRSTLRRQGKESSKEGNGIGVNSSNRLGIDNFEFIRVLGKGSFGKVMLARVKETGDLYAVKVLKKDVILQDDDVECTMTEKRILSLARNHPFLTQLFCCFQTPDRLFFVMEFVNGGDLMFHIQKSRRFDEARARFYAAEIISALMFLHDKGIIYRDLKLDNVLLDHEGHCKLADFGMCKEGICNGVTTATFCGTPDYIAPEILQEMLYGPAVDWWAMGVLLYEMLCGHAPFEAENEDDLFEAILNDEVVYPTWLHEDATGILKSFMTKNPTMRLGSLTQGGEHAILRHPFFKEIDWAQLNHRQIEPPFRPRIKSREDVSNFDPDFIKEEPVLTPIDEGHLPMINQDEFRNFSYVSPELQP
Procedure for human KDR in Hek cells: HEK KDR cells were plated on 96-well flat bottom plates for 16 hours in a tissue culture incubator. […] Briefly, cells on plates were lysed with Mesoscale lysis buffer (containing phosphatase/ proteinase inhibitors and 0.05% SDS), frozen at -80°C for 2 hours, and then placed on an orbital shaker at 4°C for 16 hours. Cell lysate was transferred to a blocked phopsho-KDR plate, incubated at room temperature for 2 hours, washed twice, and blotted dry. The detection antibody was added to all wells on the plate, incubated for 2 hours at room temperature on an orbital shaker, and plate was washed three times. Diluted Mesoscale detection solution was added to each well and the plates were read on the Sector Imager instrument (Mesoscale, Gaithersberg, MD).

By IC50 is commonly meant the point on the concentration scale where inhibition reaches its midpoint. Usually ED50 stands for the dose at which the effect has come halfway, by size or by number of responders. Lower therefore signals an effect at a small dose. Broadly, the Ki is a measure of affinity in units of concentration, obtained from inhibition or displacement. A low value points to a stronger hold on the target. On human KDR in Hek cells (Hek cells), `c1cc(CC2CCOCC2)n2nc(Nc3ccc4c(NC5CCOCC5)n[nH]c4c3)nc2c1` [CC-509, [3-(2H-3,4,5,6-tetrahydropyran-4-ylamino)(1H-indazol-6-yl)][5-(2H-3,4,5,6-tetrahydropyran-4-ylmethyl)(2H-1,2,4-triazolo[1,5-a]pyridin-2-yl)]amine] yielded a concentration for half-maximal inhibition (IC50) of 7.43 ± 3.36 µM. Further, at human KDR in Hek cells (R406 more potent), the “fold difference in potency between R406 and CC-509, KDR cellular assay” value came to 10 fold. In addition, the remaining activity at 3 µM on PKC-eta_h is 102%. Also, the “inhibition of paw swelling” value in data set [1] (15 mg/kg b.i.d. oral, p<0.001) stood at 72%; in data set [1] (15 mg/kg q.d. oral, not significant) it was 32%; in data set [1] (25 mg/kg q.d. oral, p<0.0001), 74%. In addition, in data set [1] (rat CIA model), the 50% effective dose (ED50) was roughly 10 mg/kg. The AUC(0-t) in data set [2] (15 mg/kg, 15 mg/kg b.i.d.) is 60 µM·h; in data set [2] (15 mg/kg, 15 mg/kg q.d.), 22 µM·h; in data set [2] (25 mg/kg, 25 mg/kg q.d.) it was 45 µM·h. Besides, the minimal efficacious exposure in data set [2] (rat CIA) is 45 µM·h. The same molecule displayed a Ki on Syk of 0.018 µM. The “mode of inhibition with respect to the Syk ATP binding site” value on Syk (based on enzyme kinetics) is on record as “mixed competitive inhibitor”.
